Results as given in US20080194546A1, “Pyrido-, Pyrazo- and Pyrimido-Pyrimidine Derivatives as mTOR Inhibitors” (KuDOS Pharmaceuticals Limited, priority 2005, published 2008).

Biological target: T1, mTOR (Homo sapiens, UniProt P42345)
T1 construct: mTOR protein was isolated from HeLa cell cytoplasmic extract by immunoprecipitation; endogenous in cells; host or cells: HeLa cell cytoplasmic extract (immunoprecipitate)
Test: Biological Assay: mTOR enzyme activity, mTOR immunoprecipitated from HeLa cell cytoplasmic extract, recombinant PHAS-1 as substrate
Type: biochemical
Details: Biological Assay, upper bounds; read-out: IC50 values against mTOR

Row | SMILES | IC50 [µM]
1 | C=C(C)CNc1ccc2c(N3CCOCC3)nc(N3C[C@@H](C)O[C@@H](C)C3)nc2n1 [Example 2v] | < 10
2 | C[C@@H]1CN(c2nc(N3CCOCC3)c3ccc(NC4CCN(C)CC4)nc3n2)C[C@H](C)O1 [Example 2w] | < 10
3 | Cc1cc(Nc2ccc3c(N4CCOCC4)nc(N4C[C@@H](C)O[C@@H](C)C4)nc3n2)no1 [Example 2x] | < 10
4 | Cc1ccc(-n2nc(C)cc2Nc2ccc3c(N4CCOCC4)nc(N4C[C@@H](C)O[C@@H](C)C4)nc3n2)cc1 [Example 2y] | < 10
5 | CCNC(=O)Nc1ccc2c(N3CCOCC3)nc(N3C[C@@H](C)O[C@@H](C)C3)nc2n1 [Example 4a] | < 10
6 | C[C@@H]1CN(c2nc(N3CCOCC3)c3ccc(NC(=O)C4CCCC4)nc3n2)C[C@H](C)O1 [Example 5b] | < 10
7 | C[C@@H]1CN(c2nc(N3CCOCC3)c3ccc(NC(=O)CSc4ccccc4)nc3n2)C[C@H](C)O1 [Example 5d] | < 10
8 | C[C@@H]1CN(c2nc(N3CCOCC3)c3ccc(NC(=O)c4cnc5ccccc5n4)nc3n2)C[C@H](C)O1 [Example 5e] | < 10
9 | CC(=O)Nc1ccc2c(N3CCOCC3)nc(N3C[C@@H](C)O[C@@H](C)C3)nc2n1 [Example 5f] | < 10
10 | C[C@@H]1CN(c2nc(N3CCOCC3)c3ccc(NC(=O)c4nc[nH]c4N)nc3n2)C[C@H](C)O1 [Example 5g] | < 10
11 | C[C@@H]1CN(c2nc(N3CCOCC3)c3ccc(NS(C)(=O)=O)nc3n2)C[C@H](C)O1 [Example 6] | < 10
12 | CCCCOc1ccc2c(N3CCOCC3)nc(N3C[C@@H](C)O[C@@H](C)C3)nc2n1 [Example 7] | < 10

Now from value to compound:

Row | IC50 [µM] | SMILES
13 | < 1 | COC(=O)c1ccc(Nc2ccc3c(N4CCOCC4)nc(N4C[C@@H](C)O[C@@H](C)C4)nc3n2)cc1 [Example 2g]
14 | < 1 | C[C@@H]1CN(c2nc(N3CCOCC3)c3ccc(Nc4ccc(C#N)cc4)nc3n2)C[C@H](C)O1 [Example 2h]
15 | < 1 | C[C@H]1CCCCN1c1nc(N2CCOCC2)c2ccc(Nc3ccccc3)nc2n1 [Example 2i]
16 | < 1 | Cc1ccc(Nc2ccc3c(N4CCOCC4)nc(N4C[C@@H](C)O[C@@H](C)C4)nc3n2)cc1 [Example 2j]
17 | < 1 | C[C@@H]1CN(c2nc(N3CCOCC3)c3ccc(Nc4ccc(Cl)cc4)nc3n2)C[C@H](C)O1 [Example 2k]
18 | < 10 | Cc1cc([N+](=O)[O-])cc(Cl)c1Nc1ccc2c(N3CCOCC3)nc(N3C[C@@H](C)O[C@@H](C)C3)nc2n1 [Example 2l]
19 | < 10 | C[C@@H]1CN(c2nc(N3CCOCC3)c3ccc(Nc4cccc(C(=O)c5ccccc5)c4)nc3n2)C[C@H](C)O1 [Example 2m]
20 | < 1 | CC(C)c1cccc(Nc2ccc3c(N4CCOCC4)nc(N4C[C@@H](C)O[C@@H](C)C4)nc3n2)c1 [Example 2n]
21 | < 10 | C[C@@H]1CN(c2nc(N3CCOCC3)c3ccc(Nc4cccc5cccnc45)nc3n2)C[C@H](C)O1 [Example 2o]
22 | < 1 | COc1ccc(/C=C/c2ccc(Nc3ccc4c(N5CCOCC5)nc(N5C[C@@H](C)O[C@@H](C)C5)nc4n3)cc2)cc1 [Example 2p]
23 | < 1 | C[C@@H]1CN(c2nc(N3CCOCC3)c3ccc(Nc4ccc(-n5cccc5)cc4)nc3n2)C[C@H](C)O1 [Example 2q]
24 | < 10 | C[C@@H]1CN(c2nc(N3CCOCC3)c3ccc(Nn4cnnc4)nc3n2)C[C@H](C)O1 [Example 2r]
25 | < 10 | C[C@@H]1CN(c2nc(N3CCOCC3)c3ccc(Nc4nc(-c5ccccc5Cl)cs4)nc3n2)C[C@H](C)O1 [Example 2s]
26 | < 1 | Cc1cnccc1Nc1ccc2c(N3CCOCC3)nc(N3C[C@@H](C)O[C@@H](C)C3)nc2n1 [Example 2t]
27 | < 1 | C[C@@H]1CN(c2nc(N3CCOCC3)c3ccc(N)nc3n2)C[C@H](C)O1 [Example 3a]
28 | < 1 | C[C@H]1CCCCN1c1nc(N2CCOCC2)c2ccc(N)nc2n1 [Example 3b]
29 | < 1 | C/C=C/C(=O)Nc1ccc2c(N3CCOCC3)nc(N3C[C@@H](C)O[C@@H](C)C3)nc2n1 [Example 5c]
